This is an account of results in patent US8629141B2, “Spiro-oxindole MDM2 antagonists” (The Regents of the University of Michigan, priority 2011, dated 2014).

pIC50, pKi: −log10 of the molar value.

System in one data set: not listed separately
Nature of the data set: Stability of compounds in solution, 1:1 CH3CN:H2O. The class given is physicochemical. Particulars: ultra performance liquid chromatography (FIG. 5).
With `O=C(NC1CN(C(=O)O)C1)[C@@H]1NC2(CCCCC2)[C@@]2(C(=O)Nc3cc(Cl)ccc32)[C@H]1c1cccc(Cl)c1F` [compound 39], the Stability in solution entry is on record as “more stable than MI-77301”.

System in a further data set: not listed separately
Put plainly: Stability of compounds in solution, 1:1 MeOH:H2O. The format is physicochemical. Particulars: ultra performance liquid chromatography (FIG. 4).
For the molecule `O=C(NC1CN(C(=O)O)C1)[C@@H]1NC2(CCCCC2)[C@@]2(C(=O)Nc3cc(Cl)ccc32)[C@H]1c1cccc(Cl)c1F` [compound 39], the Stability in solution entry is “more stable than MI-77301”.

System in a further data set: not listed separately
Put plainly: Stability in 1:1 MeOH:H2O with 10% TFA. The format is physicochemical. Particulars: 1:1 MeOH:H2O with 10% TFA added, UPLC (FIG. 6). The procedure: The stability of Compound Example Nos. 10 and 11 were determined in 1:1 MeOH:H2O with 10% TFA added using ultra performance liquid chromatography (FIG. 6).
With `O=C(NC1CCC(O)CC1)[C@@H]1NC2(CCOCC2)[C@]2(C(=O)Nc3cc(Cl)ccc32)[C@H]1c1cccc(Cl)c1F` (some centres unmarked) [compound 10], the “Stability in solution (isomer conversion)” value was “converted into Compound Example No. 11”.

The next data set concerns the target recombinant human His-tagged MDM2 protein (residues 1-118) (Homo sapiens (Human), UniProt Q00987). Put plainly: Fluorescence-polarization MDM2 competitive binding assay. To be noted: FP competition with PMDM6-F peptide (1 nM), MDM2 10 nM, 3 h incubation; read-out: Binding affinities to MDM2 (1-118) IC50. As for the experimental part: The binding affinity of the MDM2 inhibitors disclosed herein was determined using a fluorescence polarization-based (FP-based) binding assay using a recombinant human His-tagged MDM2 protein (residues 1-118) and a fluorescently tagged p53-based peptide.
(García-Echeverria et al., J. Med. Chem. 43: 3205-3208 (2000)). […] The assay was performed in the buffer: 100 mM potassium phosphate, pH 7.5; 100 μg/mL bovine gamma globulin; 0.02% sodium azide, 0.01% Triton X-100) and the polarization values were measured after 3 h of incubation using an ULTRA READER (Tecan U.S. Inc., Research Triangle Park, N.C.). […] The Kd value was calculated using the equation: Kd value=IC50−L0/2.
100 μg/mL bovine gamma globulin; 0.02% sodium azide, 0.01% Triton X-100), were added in a Dynex 96-well, black, round-bottom plate to produce a final volume of 125 μL. […] The polarization values were measured after 3 h of incubation. […] Curve fitting was performed using […] PRISM software (GraphPad Software, Inc., San Diego, Calif.).
Broadly, the pIC50 is −log10 of the IC50, conventionally taken in molar units. On to `O=C(NCCN1CCOCC1)[C@@H]1NC2(CCC(F)(F)CC2)[C@]2(C(=O)Nc3cc(Cl)ccc32)[C@H]1c1cccc(Cl)c1F` [Compound 8], for which the pIC50 was greater than 5.30.

Consider `O=C(NC1CCC(O)CC1)[C@@H]1NC[C@@]2(C(=O)Nc3cc(Cl)ccc32)[C@H]1c1cccc(Cl)c1F` (some centres unmarked) [Compound 5], for which the pIC50 is less than 5.00.

Regarding `CS(=O)(=O)CCN1CCC(NC(=O)[C@@H]2NC3(CCCCC3)[C@@]3(C(=O)Nc4cc(Cl)ccc43)[C@H]2c2cccc(Cl)c2F)CC1` [Compound 25], the pIC50 is greater than 7.00.

Take `O=C(NCCN1CCOCC1)[C@@H]1NC2(CCCCC2)[C@@]2(C(=O)Nc3cc(Cl)ccc32)[C@H]1c1cccc(Cl)c1F` [Compound 15]: the pIC50 was greater than 7.00.

As for `CNC(=O)[C@@H]1NC2(CCCCC2)[C@@]2(C(=O)Nc3cc(Cl)ccc32)[C@H]1c1cc(Cl)ccc1OC(C)(C)C(=O)O` [Compound 34], the pIC50 was less than 5.00.

In the case of `CC1(C)N[C@@H](C(=O)NC2CCC(O)CC2)[C@H](c2cccc(Cl)c2F)[C@]12C(=O)Nc1cc(Cl)ccc12` (some centres unmarked) [Compound 1], the pIC50 was 6.70.

In the case of `O=C(NCCN1CCOCC1)[C@@H]1NC2(CCC(F)(F)CC2)[C@@]2(C(=O)Nc3cc(Cl)ccc32)[C@H]1c1cccc(Cl)c1F` [Compound 7], the pIC50 is greater than 6.00.

Consider `O=C(NCc1nnn[nH]1)[C@@H]1NC2(CCCCC2)[C@@]2(C(=O)Nc3cc(Cl)ccc32)[C@H]1c1cccc(Cl)c1F` [Compound 32], for which the pIC50 is greater than 7.00.

For `O=C(NC1CCC(O)CC1)[C@@H]1NC2(CCCCC2)[C@@]2(C(=O)Nc3cc(Cl)ccc32)[C@H]1c1cccc(Cl)c1F` (some centres unmarked) [Compound 41], the pIC50 was greater than 7.00.

For the molecule `O=C(NC1CN(C(=O)O)C1)[C@@H]1NC2(CCCCC2)[C@@]2(C(=O)Nc3cc(Cl)ccc32)[C@H]1c1cccc(Cl)c1F` [Compound 39], the pIC50 was greater than 7.00.

For `CNC(=O)[C@@H]1NC2(CCCCC2)[C@@]2(C(=O)Nc3cc(Cl)ccc32)[C@H]1c1cc(Cl)cnc1OC(C)(C)C(=O)O` [Compound 35], the pIC50 is less than 5.00.

`O=C(O)[C@@H]1NC2(CCCCC2)[C@@]2(C(=O)Nc3cc(Cl)ccc32)[C@H]1c1cccc(Cl)c1F` [Compound 26]: the pIC50 was greater than 6.30.

As for `CC1(O)CC(NC(=O)[C@@H]2NC3(CCCCC3)[C@@]3(C(=O)Nc4cc(Cl)ccc43)[C@H]2c2cccc(Cl)c2F)C1` (some centres unmarked) [Compound 33], the pIC50 is greater than 7.00.

Turning to `CS(=O)(=O)CCNC(=O)[C@@H]1NC2(CCCCC2)[C@@]2(C(=O)Nc3cc(Cl)ccc32)[C@H]1c1cccc(Cl)c1F` [Compound 20], the pIC50 was greater than 7.00.

As for `CCC1(CC)N[C@@H](C(=O)NCCN2CCOCC2)[C@H](c2cccc(Cl)c2F)[C@]12C(=O)Nc1cc(Cl)ccc12` [Compound 6], the pIC50 was greater than 6.00.

With `O=C(NCCN1CCOCC1)[C@@H]1NC2(CCOCC2)[C@@]2(C(=O)Nc3cc(Cl)ccc32)[C@H]1c1cccc(Cl)c1F` [Compound 12], the pIC50 is greater than 5.30.

The data set is the same for the next values; noted with them: FP competition with PMDM6-F peptide; read-out: Binding affinities to MDM2 (1-118) Ki.
A word on the pKi: it is the negative decadic logarithm of the Ki, by convention in mol/L. On to `CC1(C)N[C@@H](C(=O)NC2CCC(O)CC2)[C@H](c2cccc(Cl)c2F)[C@]12C(=O)Nc1cc(Cl)ccc12` (some centres unmarked) [Compound 1], for which the pKi is 7.58.
